Assay results: US5647363A, “Ambulatory clearance function monitor” (The General Hospital Corporation, priority 1994, dated 1997)

Experiments:
[1] = Clearance rate constant of labelled tracer by external ambulatory renal monitor; format: in vivo; settings: patient in intensive care unit, initial (moderately decreased renal function)
Description: A more detailed description of an example of a renal function monitor follows, in which clearance of a radiolabelled injected substance was measured according to the detected radiation according to the invention. The performance of the apparatus was tested by comparison with results obtained using standard techniques.
Data collection was performed using a battery-operated, pocket-size lightweight data logger having 32K total RAM (Tattletale, Model V, Onset Computer Corp., N. Falmouth, Mass.). The detector was a 16 mm diameter×2 mm thick cadmium-telluride (Cd-Te) detector (Radiation Monitoring Devices, Watertown, Mass.) connected to a preamplifier and a lower level discriminator. […]
The usual diet was not altered. Weight and height were measured soon after arrival at the treatment facility. […]
To determine the value of the invention for monitoring of renal function, two patients at risk of ARF with serum creatinine ≥2 mg/dl were monitored before, during and after an angiographic procedure. […] The rate constant, as measured according to the invention, decreased in this patient from 2.85×10^-3 min^-1 to 0.2×10^-3 min^-1; and the serum creatinine in this patient increased from 2.4 to 2.8 mg/dl over the succeeding 12 hours.
The rate of clearance of ^99m Tc-DTPA was also monitored in a patient in an intensive care unit. […]

[2] = human, in vivo; cited from earlier work

In the case of O=C([O-])CN(CCN(CC(=O)[O-])CC(=O)[O-])CCN(CC(=O)[O-])CC(=O)[O-].[99Tc+4] [^99m Tc-DTPA], the rate constant [1] is listed as 0.0035 min⁻¹ and the “rate constant (Normal)” value [2] is listed as 0.0065 min⁻¹.
